Data published in patent US20250230193A1, “CYCLIC COMPOUND HAVING SELECTIVE KRAS INHIBITORY EFFECT ON HRAS AND NRAS” (CHUGAI SEIYAKU KABUSHIKI KAISHA, priority 2022, published 2025).
*1 amine or outer side, *2 acyl side, *3 side chain or, on linkers, in order; H or OH if unused. Where a SMILES comes first, the peptide text is derived from it. Bridges are numbered along the chain shown (N, C = ends). [ ]: non-standard residue; d: D form. The star is where a group is joined. hPhe(3-Cl-4-CF3) = N[C@@H](CCc1ccc(C(F)(F)F)c(Cl)c1)C(=O)O; X22 = CCCN([C@@H](COC1CCC1)C(=O)[*:2])[*:1]; NMeGly(cPent) = CN[C@H](C(=O)O)C1CCCC1; NMeD = CN[C@@H](CC(=O)O)C(=O)O; NMeL = CN[C@@H](CC(C)C)C(=O)O; Morpholide = C1CN(*)CCO1; NMeA = CN[C@@H](C)C(=O)O; Aze = O=C(O)[C@@H]1CCN1; Ac4c = NC1(C(=O)O)CCC1; Sar = CNCC(=O)O

How the values were obtained:
[1] = biological target: GDP-bound NRAS wild-type protein (Homo sapiens, UniProt P01111); test: Binding to NRAS by surface plasmon resonance (SPR), Single Cycle Kinetics
[2] = biological target: GDP-bound HRAS wild-type protein (Homo sapiens, UniProt P01112); test: Binding to HRAS by surface plasmon resonance (SPR), Single Cycle Kinetics
[3] = SPR, GDP-bound NRAS wild-type vs GDP-bound KRAS wild-type
[4] = SPR, GDP-bound HRAS wild-type vs GDP-bound KRAS wild-type
[5] = SPR, GDP-bound wild-type proteins

Sequence of GDP-bound NRAS wild-type protein (P01111 whole entry): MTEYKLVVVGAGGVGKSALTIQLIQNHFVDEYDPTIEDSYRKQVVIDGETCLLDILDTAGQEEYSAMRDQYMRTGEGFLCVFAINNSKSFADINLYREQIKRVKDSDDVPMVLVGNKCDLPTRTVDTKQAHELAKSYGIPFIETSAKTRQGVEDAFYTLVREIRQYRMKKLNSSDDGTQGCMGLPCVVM
Sequence of GDP-bound HRAS wild-type protein (P01112 whole entry): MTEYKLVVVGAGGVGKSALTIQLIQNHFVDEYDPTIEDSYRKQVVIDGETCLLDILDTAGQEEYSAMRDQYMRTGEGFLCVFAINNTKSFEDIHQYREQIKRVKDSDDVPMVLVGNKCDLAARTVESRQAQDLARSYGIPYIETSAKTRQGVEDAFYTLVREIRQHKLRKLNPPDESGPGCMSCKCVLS

## CCC[C@H]1C(=O)N[C@@H]([C@@H](C)CC)C(=O)N(C)CC(=O)N(C)[C@H]2C/C=C\CCN(C2=O)[C@@H](Cc2ccc(C)cc2)C(=O)N(C)CC(=O)N[C@@H](CCc2ccc(C(F)(F)F)c(OC)c2)C(=O)N2C[C@@H](C)C[C@H]2C(=O)N(C)C2(CCC2)C(=O)N(C)[C@@H](C2CCCC2)C(=O)N(C)[C@H](C(=O)N(C)C)CC(=O)N1C [PP2364]
[1]; [3]
  NRAS/KRAS (ratio of KD value with respect to NRAS to KD value with respect to KRAS): A (a compound having 10 or more and less than 20 is denoted as A)
[2]; [4]
  HRAS/KRAS (ratio of KD value with respect to HRAS to KD value with respect to KRAS): B (a compound having 3 or more and less than 10 is denoted as B)

## CCO[C@@H]1C[C@H]2C(=O)NC3(CC(C)(C)C3)C(=O)N(C)[C@@H](C(CC)CC)C(=O)N(C)[C@H](C(=O)N(C)C)CC(=O)N(C)[C@H]3CC/C=C/c4ccc(cc4)C[C@@H](C(=O)N(C)CC(=O)N[C@@H](CCc4ccc(Cl)c(Cl)c4)C(=O)N2C1)N1CC/C=C\C[C@@H](C1=O)N(C)C(=O)CN(C)C(=O)[C@H]([C@@H](C)CC)NC3=O [PP2589]
[1]; class symbols
  NRAS/KRAS (ratio of KD value with respect to GDP-bound NRAS wild-type protein to KD value with respect to KRAS): AA (a compound having 20 or more is denoted as AA)
[2]; class symbols
  HRAS/KRAS (ratio of KD value with respect to GDP-bound HRAS wild-type protein to KD value with respect to KRAS): A (a compound having 10 or more and less than 20 is denoted as A)

## CCCOC[C@H]1C(=O)N[C@@H]([C@@H](C)CC)C(=O)N(C2CC2)CC(=O)N(C)[C@H]2C/C=C\CCN(C2=O)[C@@H](CC2CCC(F)(F)CC2)C(=O)N(C)CC(=O)N[C@@H](CCc2ccc(C(F)(F)F)c(OC)c2)C(=O)N2C[C@@H](C)C[C@H]2C(=O)N(C)C2(CCC2)C(=O)N(C)[C@@H](C2CCCC2)C(=O)N(C)[C@H](C(=O)N(C)C)CC(=O)N1C [PP2379]
[1]; [3]
  NRAS/KRAS (ratio of KD value with respect to NRAS to KD value with respect to KRAS): A (a compound having 10 or more and less than 20 is denoted as A)
[2]; [4]
  HRAS/KRAS (ratio of KD value with respect to HRAS to KD value with respect to KRAS): A (a compound having 10 or more and less than 20 is denoted as A)

## C#CC[C@H]1C(=O)N[C@@H]([C@@H](C)CC)C(=O)N(C)CC(=O)N(C)[C@H]2CCCCN(C2=O)[C@@H](Cc2ccc(C(F)(F)F)cc2)C(=O)N(C)CC(=O)N[C@@H](CCc2cc(F)c(C(F)(F)F)c(F)c2)C(=O)N2C[C@H](OCC)C[C@H]2C(=O)NC2(CCC2)C(=O)N(C)[C@@H](C2CCCC2)C(=O)N(C)[C@H](C(=O)N2CCOCC2)CC(=O)N1C [PP0711]
[1]; SPR
  NRAS/KRAS (ratio of KD value with respect to GDP-bound NRAS wild-type protein to KD value with respect to KRAS): C (A compound having a KD ratio of 0.1 or more and less than 3 is denoted as C)
[2]; SPR
  HRAS/KRAS (ratio of KD value with respect to GDP-bound HRAS wild-type protein to KD value with respect to KRAS): B (a compound having 3 or more and less than 10 is denoted as B)

## CCCN1C(=O)[C@@H]2CCN2C(=O)[C@H](C)N(C)C(=O)[C@H]([C@@H](C)CC)NC(=O)[C@H](CC(C)C)N(C)C(=O)C[C@@H](C(=O)N2CCOCC2)N(C)C(=O)[C@H](C2CCCC2)N(C)C(=O)C2(CCC2)NC(=O)[C@@H]2CCCN2C(=O)[C@H](CCc2ccc(C(F)(F)F)c(Cl)c2)NC(=O)CN(C)C(=O)[C@@H]1COC1CCC1 [PP1818] ([NMeL]I[NMeA][Aze][X22][Sar][hPhe(3-Cl-4-CF3)]P[Ac4c][NMeGly(cPent)][NMeD]-Morpholide; lactam N-11)
[1]; KD ratio, GDP-bound NRAS wild-type vs GDP-bound KRAS wild-type, SPR
  NRAS/KRAS (ratio of KD value for NRAS to KD value for KRAS): C (A compound having a KD ratio of 0.1 or more and less than 3 is denoted as C)
[2]; KD ratio, GDP-bound HRAS wild-type vs GDP-bound KRAS wild-type, SPR
  HRAS/KRAS (ratio of KD value for HRAS to KD value for KRAS): B (a compound having 3 or more and less than 10 is denoted as B)

## CC[C@H](C)[C@@H]1NC(=O)[C@H](COC)N(C)C(=O)C[C@@H](C(=O)N(C)C)N(C)C(=O)[C@H](C2CCCC2)N(C)C(=O)C2(CC(C)(C)C2)NC(=O)[C@@H]2C[C@@H](OC3CCCC3)CN2C(=O)[C@H](CCc2cc(F)c(C(F)(F)F)c(F)c2)NC(=O)CN(C)C(=O)[C@H](CC2CCCCC2)N2CC/C=C\C[C@@H](C2=O)N(C)C(=O)CN(C2CC2)C1=O [PP2630]
[1]; class symbols
  NRAS/KRAS (ratio of KD value with respect to GDP-bound NRAS wild-type protein to KD value with respect to KRAS): A (a compound having 10 or more and less than 20 is denoted as A)
[2]; class symbols
  HRAS/KRAS (ratio of KD value with respect to GDP-bound HRAS wild-type protein to KD value with respect to KRAS): B (a compound having 3 or more and less than 10 is denoted as B)

## CCC[C@H]1C(=O)N[C@@H]([C@@H](C)CC)C(=O)N(C)CC(=O)N(C)[C@H]2C/C=C\CCN(C2=O)[C@@H](Cc2ccc(C)cc2)C(=O)N(C)CC(=O)N[C@@H](CCc2ccc(C(F)(F)F)c(OC)c2)C(=O)N2C[C@H](OCC)C[C@H]2C(=O)NC2(CC(C)(C)C2)C(=O)N(C)[C@@H](CC(F)(F)F)C(=O)N(C)[C@H](C(=O)N(C)C)CC(=O)N1C [PP3007]
[1]; [5]
  NRAS/KRAS (ratio of KD value with respect to GDP-bound NRAS wild-type protein to KD value with respect to KRAS): A (a compound having 10 or more and less than 20 is denoted as A)
[2]; [5]
  HRAS/KRAS (ratio of KD value with respect to GDP-bound HRAS wild-type protein to KD value with respect to KRAS): A (a compound having 10 or more and less than 20 is denoted as A)
